Data reported in US8785445B2 (Array BioPharma Inc., priority 2008, dated 2014).
Like-named read-outs stand apart in the source and are kept apart here.

Target: T1, human DP2 (Homo sapiens, UniProt Q9Y5Y4)
T1 construct: expressed in transfected cells; membranes prepared
T1 sequence (Q9Y5Y4 1-395): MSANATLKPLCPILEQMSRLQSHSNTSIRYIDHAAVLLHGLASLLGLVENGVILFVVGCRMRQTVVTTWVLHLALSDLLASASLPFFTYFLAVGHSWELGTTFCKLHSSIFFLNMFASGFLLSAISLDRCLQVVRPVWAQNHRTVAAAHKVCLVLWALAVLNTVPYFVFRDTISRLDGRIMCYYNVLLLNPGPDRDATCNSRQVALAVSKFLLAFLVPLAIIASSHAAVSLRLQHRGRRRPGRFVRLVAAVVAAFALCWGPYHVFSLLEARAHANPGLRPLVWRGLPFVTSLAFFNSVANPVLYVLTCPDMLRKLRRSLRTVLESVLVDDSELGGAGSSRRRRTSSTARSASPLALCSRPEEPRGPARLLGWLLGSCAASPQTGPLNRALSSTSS
Assay: DP-2 binding inhibition assay (3H-PGD2, membranes of DP2-expressing K562 cells)
Outline: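 Membranes from K562 clones stably expressing human DP2 were incubated 60 min at room temperature with 3H-PGD2 and compound, with 0.1% BSA, 1% HSA or 4% HSA, then filtered and counted.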

[1] = 4% HSA, read-out: EC50 (nM) 4% HSA
[2] = 0.1% BSA, read-out: EC50 (nM) 0.1% BSA

Row | SMILES | EC50 [1] | further results
1 | O=C(NCCc1ccc(C(F)(F)F)nc1C1CC1)c1ccc(Oc2cc3c(cc2Cl)C(C(=O)O)CCO3)cc1 (stereo not drawn) [Example 186, Sodium 6-Chloro-7-(4-(2-(2-cyclopropyl-6-(trifluoromethyl)pyridin-3-yl)ethylcarbamoyl)phenoxy)chroman-4-carboxylate] | 32.6 nM | 
2 | O=C(Nc1ccc(-c2ccc(C(F)(F)F)c(Cl)c2)nn1)c1ccc(Oc2cc3c(cc2Cl)C(C(=O)O)CCO3)cc1 (stereo not drawn) [Example 60, Sodium 6-chloro-7-(4-(6-(3-chloro-4-(trifluoromethyl)phenyl)pyridazin-3-ylcarbamoyl)phenoxy)chroman-4-carboxylate] | 63 nM | 
3 | COc1ccc(-c2ccc(NC(=O)c3ccc(Oc4cc5c(cc4Cl)C(C(=O)O)CCO5)cc3)nn2)c(OC)n1 (stereo not drawn) [Example 69, Sodium 6-chloro-7-(4-(6-(2,6-dimethoxypyridin-3-yl)pyridazin-3-ylcarbamoyl)phenoxy)chroman-4-carboxylate] | 1780 nM | 
4 | O=C(Nc1cnc(-c2cccc(Cl)c2)cn1)c1ccc(Oc2cc3c(cc2Cl)C(C(=O)O)CCO3)cc1 (stereo not drawn) [Example 96, 6-Chloro-7-(4-(5-(3-chlorophenyl)pyrazin-2-ylcarbamoyl)phenoxy)chroman-4-carboxylic acid] | 274 nM | 
5 | O=C(Nc1ccc(-c2ccc(C(F)(F)F)cc2)cn1)c1ccc(Oc2cc3c(cc2Cl)C(C(=O)O)CCO3)cc1 (stereo not drawn) [Example 118, 6-Chloro-7-(4-(5-(4-(trifluoromethyl)phenyl)pyridin-2-ylcarbamoyl)phenoxy)chroman-4-carboxylic acid] | 100 nM | 
6 | O=C(Nc1cccc(-c2ccc(Cl)c(C(F)(F)F)c2)n1)c1ccc(Oc2cc3c(cc2Cl)C(C(=O)O)CCO3)cc1 (stereo not drawn) [Example 53, 6-Chloro-7-(4-(6-(4-chloro-3-(trifluoromethyl)phenyl)pyridin-2-ylcarbamoyl)phenoxy)chroman-4-carboxylic acid] | 40.9 nM | 
7 | O=C(Nc1cccc(-c2ccc(F)cc2)n1)c1ccc(Oc2cc3c(cc2Cl)C(C(=O)O)CCO3)cc1 (stereo not drawn) [Example 109, 6-Chloro-7-(4-(6-(4-fluorophenyl)pyridin-2-ylcarbamoyl)phenoxy)chroman-4-carboxylic acid] | 129 nM | 
8 | Cc1cc2nc(NC(=O)c3ccc(Oc4cc5c(cc4C#N)C(C(=O)O)CCO5)cc3)sc2cc1C (stereo not drawn) [Example 200, 6-cyano-7-(4-(5,6-dimethylbenzo[d]thiazol-2-ylcarbamoyl)phenoxy) chroman-4-carboxylic acid] |  | EC50 [2]: 7.6 nM
9 | COc1ccc(-c2cccc(CCNC(=O)c3ccc(Oc4cc5c(cc4Cl)C(C(=O)O)CCO5)cc3)n2)cn1 (stereo not drawn) [Example 215, 6-chloro-7-(4-(2-(6′-methoxy-2,3′-bipyridin-6-yl)ethylcarbamoyl)phenoxy)chroman-4-carboxylic acid] | 1600 nM | 
10 | O=C(Nc1cncc(-c2cccc(C(F)(F)F)c2)n1)c1ccc(Oc2cc3c(cc2Cl)C(C(=O)O)CCO3)cc1 (stereo not drawn) [Example 94, 6-chloro-7-(4-(6-(3-(trifluoromethyl)phenyl)pyrazin-2-ylcarbamoyl)phenoxy)chroman-4-carboxylic acid] | 208 nM | 
11 | N#Cc1cc2c(cc1Oc1ccc(C(=O)Nc3nnc(-c4ccc(Cl)cc4)s3)cc1)OCCC2C(=O)O (stereo not drawn) [Example 147, 7-(4-(5-(4-chlorophenyl)-1,3,4-thiadiazol-2-ylcarbamoyl)phenoxy)-6-cyanochroman-4-carboxylic acid] | 3440 nM | 
12 | O=C(Nc1cncc(-c2ccc(Cl)cc2)n1)c1ccc(Oc2cc3c(cc2Cl)C(C(=O)O)CCO3)cc1 (stereo not drawn) [Example 79, 6-chloro-7-(4-(6-(4-chlorophenyl)pyrazin-2-ylcarbamoyl)phenoxy)chroman-4-carboxylic acid] | 105 nM | 
13 | COc1ccc(-c2cccc(CCNC(=O)c3ccc(Oc4cc5c(cc4Cl)C(C(=O)O)CCO5)cc3)n2)cc1 (stereo not drawn) [Example 214, 6-chloro-7-(4-(2-(6-(4-methoxyphenyl)pyridin-2-yl)ethylcarbamoyl)phenoxy)chroman-4-carboxylic acid] | 1350 nM | 
14 | O=C(Nc1cnc(-c2ccc(Cl)cc2)cn1)c1ccc(Oc2cc3c(cc2Cl)C(C(=O)O)CCO3)cc1 (stereo not drawn) [Example 95, 6-Chloro-7-(4-(5-(4-chlorophenyl)pyrazin-2-ylcarbamoyl)phenoxy)chroman-4-carboxylic acid] | 365 nM | 
15 | N#Cc1cc2c(cc1Oc1ccc(C(=O)Nc3cccc(-c4cccc(C(F)(F)F)c4)n3)cc1)OCCC2C(=O)O (stereo not drawn) [Example 41, 6-Cyano-7-(4-(6-(3-(trifluoromethyl)phenyl)pyridin-2-ylcarbamoyl)-phenoxy)chroman-4-carboxylic acid] | 50.8 nM | 
16 | N#Cc1cc2c(cc1Oc1ccc(C(=O)Nc3nnc(-c4ccccc4)s3)cc1)OCCC2C(=O)O (stereo not drawn) [Example 146, 6-Cyano-7-(4-(5-phenyl-1,3,4-thiadiazol-2-ylcarbamoyl)phenoxy)chroman-4-carboxylic acid] | 728 nM | 

Row | SMILES | EC50 [1] | further results
17 | O=C(Nc1cccc(-c2ccc(Cl)cc2)n1)c1ccc(Oc2c(C3CC3)cc3c(c2C2CC2)OCCC3C(=O)O)cc1 (stereo not drawn) [Example 107, Sodium 7-(4-(6-(4-chlorophenyl)pyridin-2-ylcarbamoyl)phenoxy)-6,8-dicyclopropylchroman-4-carboxylate] | 52.2 nM | 
18 | O=C(Nc1cc(-c2ccc(Cl)cc2)no1)c1ccc(Oc2cc3c(cc2Cl)C(C(=O)O)CCO3)cc1 (stereo not drawn) [Example 161, 6-chloro-7-(4-(3-(4-chlorophenyl)isoxazol-5-ylcarbamoyl)phenoxy)chroman-4-carboxylic acid] | 74.6 nM | 
19 | O=C(Nc1ccc2c(Cl)cccc2n1)c1ccc(Oc2cc3c(cc2Cl)C(C(=O)O)CCO3)cc1 (stereo not drawn) [Example 19, 6-Chloro-7-(4-(5-chloroquinolin-2-ylcarbamoyl)phenoxy)chroman-4-carboxylic acid] | 210 nM | 
20 | Cc1nc(NC(=O)c2ccc(Oc3cc4c(cc3Cl)C(C(=O)O)CCO4)cc2)sc1C(C)(C)C (stereo not drawn) [Example 151, 7-(4-(5-tert-butyl-4-methylthiazol-2-ylcarbamoyl)phenoxy)-6-chlorochroman-4-carboxylic acid] | 473 nM | 
21 | O=C(Nc1ccc2cccc(Cl)c2n1)c1ccc(Oc2cc3c(cc2Cl)C(C(=O)O)CCO3)cc1 (stereo not drawn) [Example 25, 6-Chloro-7-(4-(8-chloroquinolin-2-ylcarbamoyl)phenoxy)chroman-4-carboxylic acid] | 5980 nM | 
22 | O=C(Nc1cccc(-c2ccc(Cl)c(F)c2)n1)c1ccc(Oc2cc3c(cc2Cl)C(C(=O)O)CCO3)cc1 (stereo not drawn) [Example 86, 6-Chloro-7-(4-(6-(4-chloro-3-fluorophenyl)pyridin-2-ylcarbamoyl)phenoxy)chroman-4-carboxylic acid] | 49.5 nM | 
23 | O=C(Nc1ccc(-c2ccc(F)cc2)nn1)c1ccc(Oc2cc3c(cc2Cl)C(C(=O)O)CCO3)cc1 (stereo not drawn) [Example 66, Sodium 6-chloro-7-(4-(6-(4-fluorophenyl)pyridazin-3-ylcarbamoyl)phenoxy)chroman-4-carboxylate] | 306 nM | 
24 | O=C(Nc1nc(-c2ccc(F)cc2F)cs1)c1ccc(Oc2cc3c(cc2Cl)C(C(=O)O)CCO3)cc1 (stereo not drawn) [Example 155, 6-chloro-7-(4-(4-(2,4-difluorophenyl)thiazol-2-ylcarbamoyl)phenoxy)chroman-4-carboxylic acid] | 68.9 nM | 
25 | COc1ccc(-c2cccc(NC(=O)c3ccc(Oc4cc5c(cc4Cl)C(C(=O)O)CCO5)cc3)n2)cn1 (stereo not drawn) [Example 54, Sodium 6-chloro-7-(4-(6′-methoxy-2,3′-bipyridin-6-ylcarbamoyl)phenoxy)chroman-4-carboxylate] | 337 nM | 
26 | N#Cc1cc2c(cc1Oc1ccc(C(=O)Nc3nc4ccc(F)cc4s3)cc1)OCCC2C(=O)O (stereo not drawn) [Example 195, 6-cyano-7-(4-(6-fluorobenzo[d]thiazol-2-ylcarbamoyl)phenoxy) chroman-4-carboxylic acid] |  | EC50 [2]: 12.9 nM; EC50 (1% HSA, read-out: EC50 (nM) 1% HSA): 194 nM
27 | O=C(Nc1cccc(-c2ccc(Cl)cc2)n1)c1ccc(Oc2cc3c(cc2Cl)[C@H](C(=O)O)CCO3)cc1 (single isomer, unassigned; enantiomer 2) [Example 142, 6-Chloro-7-(4-(6-(4-chlorophenyl)pyridin-2-ylcarbamoyl)phenoxy)chroman-4-carboxylic acid, Enantiomer 2] | 21.7 nM | 
28 | O=C(Nc1cccc(-c2ccc(Cl)cc2)n1)c1ccc(Oc2cc3c(cc2Cl)C(C(=O)O)CCO3)cc1 (single isomer, unassigned; enantiomer 2) [Example 182, Enantiomer 2 of 6-Chloro-7-(4-(6-(4-chlorophenyl)pyridin-2-ylcarbamoyl)phenoxy)chroman-4-carboxylic acid] | 22 nM | 
29 | O=C(Nc1ccc(-c2cccc(Cl)c2)cn1)c1ccc(Oc2cc3c(cc2Cl)C(C(=O)O)CCO3)cc1 (stereo not drawn) [Example 116, 6-Chloro-7-(4-(5-(3-chlorophenyl)pyridin-2-ylcarbamoyl)phenoxy)chroman-4-carboxylic acid] | 82.8 nM | 
30 | O=C(Nc1cccc(-c2ccc(F)cc2F)n1)c1ccc(Oc2cc3c(cc2Cl)C(C(=O)O)CCO3)cc1 (stereo not drawn) [Example 82, 6-Chloro-7-(4-(6-(2,4-difluorophenyl)pyridin-2-ylcarbamoyl)phenoxy)chroman-4-carboxylic acid] | 120 nM | 
31 | COc1ccc(-n2ccc(NC(=O)c3ccc(Oc4cc5c(cc4Cl)C(C(=O)O)CCO5)cc3)n2)cc1 (stereo not drawn) [Example 170, 6-chloro-7-(4-(1-(4-methoxyphenyl)-1H-pyrazol-3-ylcarbamoyl)phenoxy)chroman-4-carboxylic acid] | 292 nM | 
32 | COc1cccc2cc(NC(=O)c3ccc(Oc4cc5c(cc4C#N)C(C(=O)O)CCO5)cc3)cnc12 (stereo not drawn) [Example 7, 6-Cyano-7-(4-(8-methoxyquinolin-3-ylcarbamoyl)phenoxy)chroman-4-carboxylic acid] | 2070 nM | 
